Experimental data reported in patent publication US20250281610A1, “P2RY2 ACTIVITY MODULATORS” (Deutsches Krebsforschungszentrum Stiftung des öffentlichen …, priority 2022, published 2025).

How the values were obtained:
BxPC3 cells = assay: Viability of BxPC3 cells in co-culture with MART-1-specific TCR-T cells (CellTiter-Blue); type: cell-based, human; conditions: single agent: 5 μM AR-C, 10 μg/ml atezolizumab or 10 μg/ml durvalumab, 6-24 hours (FIG. 11)
Source text: FIG. 11. […] Untreated cells served as the control.
(§1) MART-1 specific T cells were generated as described (Mezzadra et al., Nature 549, 106-110 (2017); Jorritsma et al., Blood 110 (10): 3564-3572. (2007)). To generate CD33-specific chimeric antigen receptor (CAR) T cells, a CD33Hul95-CD28Z CAR (described in WO 2019/178382) cassette was cloned into a retroviral vector, and the resulting virus was used to transduce T cells as described (Mezzadra et al., Nature 549, 106-110 (2017); Jorritsma et al., Blood 110 (10): 3564-3572. (2007)).
(§2) MART1-specific CD8+ T cells and MART1 epitope-expressing cancer cells were mixed at a ratio of 1:16 to 1:4. Next, cells were centrifugated at 1,600 g for 3 min and incubated at 37° C. and 5% CO2 for 12-72 hours. T cell activation was assessed by surface staining with anti-CD137-BV421 (4-1BB, Biolegend), anti-CD69-APC/Fire™ 750 (FN50, Biolegend), anti-CD25-AF700 (BC96, Biolegend) antibodies and intracellular staining with anti-IL-2-PE/Cy7 (MQ1-17H12, Biolegend), anti-IFN-7-BV421 (4S.B3, Biolegend), anti-TNF-α-BV785 (MAb11, Biolegend) antibodies, followed by flow cytometry analysis. For intracellular staining, brefeldin A (Biolegend) was added to the cell culture medium 4 h before cells were harvested. The viability of cancer cells that grow in suspension including THP-1 cells was assessed by flow cytometry-based absolute cell counting using AccuCount beads (Spherotech). For adherent cancer cells including BxPC3 and MCF7, the cell viability was quantified using CellTiter-Blue Cell Viability Assay (Promega).

[1] = tested on: MART-1-specific TCR transduced T cells cultured with MART-1-epitope transduced BxPC3 cells; assay: T cell activation markers in co-culture of MART-1-specific TCR-T cells with MART-1+ BxPC3 cells; type: cell-based, human; conditions: single agent: 5 μM AR-C, 10 μg/ml atezolizumab or 10 μg/ml durvalumab, 6-24 hours, CD8+ MART-1-specific TCR+ population (FIG. 10)
Source text: FIG. 10. […] Untreated cells served as the control.
as §1
as §2, with “Next, cells were centrifugated at 1,600 g for 3 min and incubated at 37° C. and 5% CO2 for 12-72 hours.” left out

durvalumab: Blocking antibody of the PD-L1-PD-1 immune checkpoint
viability of BxPC3 cells (BxPC3 cells): reduced | expression of CD25 on T cells [1]: elevated | expression of CD69 on T cells [1]: elevated | expression of CD137 on T cells [1]: elevated
